Data set [1] deals with C57BL/6 mice. Put plainly: Liver histology (H&E, PAS, Oil Red O) in fat-free high carbohydrate diet (HCD) mouse model of hepatic steatosis. Format: in vivo. The settings on record: HCD+MAR mice, 100 mg/kg twice daily, 19 days. The procedure: Experiments were performed on 5-6 week-old C57BL/6 mice (Jackson Laboratories, Bar Harbor, Me.). The animals, in groups of five, were housed in a barrier room and were acclimated to their environment for at least 72 hours prior to the initiation of each experiment. Animal protocols complied with the NIH Animal Research Advisory Committee guidelines and were approved by the Children's Hospital Boston Animal Care and Use Committee. Control animals (n=5) received normal chow and water ad libitum. All animals in the experimental groups were fed a fat-free, high carbohydrate liquid diet (HCD) ad libitum placed in one bottle per cage as previously described (3, 62). No additional sources of nutrition or hydration were provided. The HCD liquid solution contained 20% dextrose, a commercial mixture of 2% essential and nonessential amino acids (TrophAmine, B. Braun Medical, Irvine, Calif.), 2 ml trace elements (Trace Elements Injection 4, USP-Pediatric, American Regent Shirley, N.Y.), and 5 ml multivitamins (M.V.I. PediatricTM, Mayne Pharma, Paramus, N.J.). Each liter of HCD contained 30 meq sodium, 20 meq potassium chloride, 15 meq calcium, 10 meq magnesium, and 10 mM phosphate. The bottles were replaced daily with fresh HCD solution. HCD animals (n=5) received HCD only and no additional treatment for 19 days. The HCD+MAR animals (n=15) additionally received 100 mg/kg of MarimastatTM in 0.45% methylcellulose (Sigma-Aldrich Corporation, St. Louis, Mo.) vehicle twice daily via orogastric gavage. The animals were individually weighed every third day and at sacrifice. We then performed a midline laparotomy to observe, excise, and weigh the liver. Approximately one half of the liver was fixed in 10% formalin at 4° C. overnight, washed with phosphate buffered saline, and then embedded in paraffin. After cutting 5 μm sections, slides were stained at the Department of Pathology, Children's Hospital Boston with H&E to examine cellular architecture and lipid accumulation, and with periodic acid-Schiff (PAS) to identify the presence of glycogen. Another portion of the liver was collected as frozen sections, placed in embedding medium (Optimal Cutting Temperature OCT, […], Torrance, Calif.), and immersed in cold 2-methylbutane (Aldrich, Milwaukee, Wis.) on dry ice. The samples were stored at […]. Sections were stained at the Department of Pathology, Children's Hospital Boston with Oil Red O to detect fat.

Data set [2] has as its system IL-6. As to the kind of experiment: ELISA for serum IL-6 levels. The note with it: HCD+MAR vs HCD-only group, P=0.001. Format: in vivo, mouse. The protocol:
Control animals (n=5) received normal chow and water ad libitum. All animals in the experimental groups were fed a fat-free, high carbohydrate liquid diet (HCD) ad libitum placed in one bottle per cage as previously described (3, 62). No additional sources of nutrition or hydration were provided. The HCD liquid solution contained 20% dextrose, a commercial mixture of 2% essential and nonessential amino acids (TrophAmine, B. Braun Medical, Irvine, Calif.), 2 ml trace elements (Trace Elements Injection 4, USP—Pediatric, American Regent Shirley, N.Y.), and 5 ml multivitamins (M.V.I. Pediatric™, Mayne Pharma, Paramus, N.J.). Each liter of HCD contained 30 meq sodium, 20 meq potassium chloride, 15 meq calcium, 10 meq magnesium, and 10 mM phosphate. The bottles were replaced daily with fresh HCD solution. HCD animals (n=5) received HCD only and no additional treatment for 19 days. The HCD+MAR animals (n=15) additionally received 100 mg/kg of Marimastat™ in 0.45% methylcellulose (Sigma-Aldrich Corporation, St. Louis, Mo.) vehicle twice daily via orogastric gavage. The animals were individually weighed every third day and at sacrifice. Mouse serum IL-6 levels were determined using a commercial ELISA kit (Quantikine®, R&D systems, Inc., Minneapolis, Minn.). Optical density was read at 450 nm and analyzed with Softmax® PRO Software (Molecular Devices Corporation, Sunnyvale, Calif.).
A general note: An ELISA detects its analyte on a solid surface through an enzyme-linked reagent.

The subject of data set [3] is PPAR-α. As to the kind of experiment: Immunoprecipitation and SDS-PAGE of PPAR-α phosphorylation. Format: in vivo, mouse. The settings on record: HCD+MAR group vs control and HCD-only. The procedure:
Control animals (n=5) received normal chow and water ad libitum. All animals in the experimental groups were fed a fat-free, high carbohydrate liquid diet (HCD) ad libitum placed in one bottle per cage as previously described (3, 62). No additional sources of nutrition or hydration were provided. The HCD liquid solution contained 20% dextrose, a commercial mixture of 2% essential and nonessential amino acids (TrophAmine, B. Braun Medical, Irvine, Calif.), 2 ml trace elements (Trace Elements Injection 4, USP—Pediatric, American Regent Shirley, N.Y.), and 5 ml multivitamins (M.V.I. Pediatric™, Mayne Pharma, Paramus, N.J.). Each liter of HCD contained 30 meq sodium, 20 meq potassium chloride, 15 meq calcium, 10 meq magnesium, and 10 mM phosphate. The bottles were replaced daily with fresh HCD solution. HCD animals (n=5) received HCD only and no additional treatment for 19 days. The HCD+MAR animals (n=15) additionally received 100 mg/kg of Marimastat™ in 0.45% methylcellulose (Sigma-Aldrich Corporation, St. Louis, Mo.) vehicle twice daily via orogastric gavage. The animals were individually weighed every third day and at sacrifice. Immunoprecipitation was performed according to the Protein-G Immunoprecipitation Kit (Sigma-Aldrich Corporation, St. Louis, Mo.) protocol. […] The sample was then centrifuged and the supernatant was, analyzed by SDS-PAGE as detailed above.

Consider one compound from US7897591B2, “Method of treating fatty liver disease” (priority 2005, dated 2011).

Consider `CNC(=O)[C@@H](NC(=O)[C@H](CC(C)C)[C@H](O)C(=O)NO)C(C)(C)C` [Marimastat], for which, in data set [1], the “H&E inflammatory changes / necrosis” value is listed as “occasional focal cellular infiltrates consistent with focal necrosis”; the “Oil Red O staining (fat in liver)” value is reported as “minimal presence of fat”; the “PAS staining (glycogen storage)” value is “highly positive, granular, and widespread”; the “steatosis on H&E sections” value is reported as “No definitive steatosis”. In data set [2], the “serum IL-6 level” value is “significantly higher”. The “phosphorylation of PPAR-α” value in data set [3] is “marked increase”.
